Measurements published in patent US10167299B2, “1-(3-aminopropyl) substituted cyclic amine compounds, preparation method therefor, and pharmaceutical compositions and uses thereof” (SHANGHAI INSTITUTE OF MATERIA MEDICA, CHINESE ACADEMY OF …, priority 2013, dated 2019).
Where two headings read alike, the source gives them in different places.

Target: CCR5 (Homo sapiens (Human), UniProt P51681)
Assay: Calcium flux inhibition experiment
Type: cell-based
Details: for calcium influx inhibition effect in words, versus positive control compounds: conclusion from Table 1
Excerpt: Experiment apparatus: FlexStation II
Experiment materials: HEK293/CCR5-Gα16 cell line, Fluo-4calcium dye (fluorescent-4 calcium ion dye) and FlexStation instrument.
Experiment theory: Activation of the receptor can cause the activation of Gα16 protein, thereby activating phospholipase C (PLC) to generate IP3 and DAG by establishing CCR5 and Ga16 co-transfected cell line. IP3 can bind to IP3 receptors on the endoplasmic reticulum and mitochondria in a cell, which can cause the release of intracellular calcium. Thus, determination of changes in intracellular calcium can be used as a method to detect CCR5 activation state. Fluo-4/AM is a fluorescent probe indicator for calcium used to measure calcium ion. As a non-polar lipid-soluble compound, after it enters into cells, AM group is dissociated to release Fluo-4 under the effect of cell lipolysis enzyme. Fluo-4 is a polar molecule and not easy to go through the lipid bilayer membrane, therefore it can stay within the cells for a long time. Ultimately, the level of activated Ga protein can be reflected by measuring the excited fluorescence intensity. If the screened compound can activate CCR5, it can greatly increase the calcium flux reaction; on the contrary, if the screened compound can antagonize CCR5, it can greatly reduce calcium flux reaction.
1. HEK293 cells which can stably express CCR5 were inoculated in a 96-well plate and incubated overnight.
2. The medium in each well into which cells were innoculated was removed and 40 μl/well of freshly prepared dye was added. The plate was placed in a 37° C. incubator and incubated for 40 minutes at constant temperature.
3. The medicament to be determined was diluted with calcium buffer to eight concentration gradients, which is 1×10^−4 M, 1×10^−5 M, 1×10^−6 M, 1×10^−7 M, 1×10^−8 M, 1×10^−9 M, 1×10^−10 M, and 1×10^−11 M, respectively, and homogeneously mixed.
4. The dye was removed. Freshly prepared calcium buffer was used to wash for one time, 50 μl of calcium buffer was added.
5. FlexStation II was used for detection. 25 μl of calcium buffer containing the medicament to be determined was added automatically from the 15th second.

[1] = HEK293/CCR5-Gα16 cell line, calcium flux, read-out: CCR5 IC50

Sequence of CCR5 (P51681 whole entry): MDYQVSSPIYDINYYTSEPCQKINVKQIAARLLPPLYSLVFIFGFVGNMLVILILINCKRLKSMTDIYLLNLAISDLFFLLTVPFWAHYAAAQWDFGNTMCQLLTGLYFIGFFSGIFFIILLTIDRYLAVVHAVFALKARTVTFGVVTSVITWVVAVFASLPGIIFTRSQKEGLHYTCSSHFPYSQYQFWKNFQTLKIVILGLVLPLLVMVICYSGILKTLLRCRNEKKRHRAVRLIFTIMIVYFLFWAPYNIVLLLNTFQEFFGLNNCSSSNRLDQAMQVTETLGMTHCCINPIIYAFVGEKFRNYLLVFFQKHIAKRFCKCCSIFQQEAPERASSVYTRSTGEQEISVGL

| Compound | IC50 [1] | calcium influx inhibition effect in words, versus positive control compounds | IC50 |
| --- | --- | --- | --- |
| Cc1nnc(C(C)C)n1C1CC2CCC(C1)N2CC[C@H](NC(=O)Cn1cnnn1)c1cccs1 (stereo partly drawn) [Compound 172, N-[(1S)-3-[exo-3-(3-isopropyl-5-methyl-4H-1,2,4-triazol-4-yl)-8-azabicyclo[3.2.1]octane-8-yl]-1-(thiophen-2-yl)propyl]-2-(1H-tetrazol-1-yl)acetamide] | 9.38 nM | better than the positive control compounds | – |
| Cc1ccc([C@H](CCN2C3CCC2CC(n2c(C)nnc2C(C)C)C3)NC(=O)Cn2ncnn2)s1 (stereo partly drawn) [Compound 153, N-[(1S)-3-[exo-3-(3-isopropyl-5-methyl-4H-1,2,4-triazol-4-yl)-8-azabicyclo[3.2.1]octane-8-yl]-1-(5-methylthiophen-2-yl)propyl]-2-(2H-tetrazol-2-yl)acetamide] | 13.4 nM | – | – |
| CNC(=O)c1ccc([C@H](CCN2C3CCC2CC(n2c(C)nnc2C(C)C)C3)NC(=O)C2CCCC2)s1 (stereo partly drawn) [Compound 142, 5-[(1S)-1-(cyclopentaneformamido)-3-[exo-3-(3-isopropyl-5-methyl-4H-1,2,4-triazol-4-yl)-8-azabicyclo[3.2.1]octane-8-yl]-propyl]-N-methylthiophene-2carboxamide] | 9.55 nM | comparable to the positive control compounds | – |
| Cc1nnc(C(C)C)n1C1CC2CCC(C1)N2CC[C@H](NC(=O)Cc1nnn[nH]1)c1ccc(F)s1 (stereo partly drawn) [Compound 163, N-[(1S)-3-[exo-3-(3-isopropyl-5-methyl-4H-1,2,4-triazol-4-yl)-8-azabicyclo[3.2.1]octane-8-yl]-1-(5-fluorothiophen-2-yl)propyl]-2-(1H-tetrazol-5-yl)acetamide] | 13.3 nM | – | – |
| Cc1nnc(C(C)C)n1C1CC2CCC(C1)N2CC[C@H](NC(=O)Cc1nnn[nH]1)c1ccc(C#N)s1 (stereo partly drawn) [Compound 161, N-[(1S)-3-[exo-3-(3-isopropyl-5-methyl-4H-1,2,4-triazol-4-yl)-8-azabicyclo[3.2.1]octane-8-yl]-1-(5-cyanothiophen-2-yl)propyl]-2-(1H-tetrazol-5-yl)acetamide] | – | comparable to the positive control compounds | 8.36 nM |
| Cc1ccc([C@H](CCN2C3CCC2CC(n2c(C)nnc2C(C)C)C3)NC(=O)Cc2nnn[nH]2)s1 (stereo partly drawn) [Compound 159, N-[(1S)-3-[exo-3-(3-isopropyl-5-methyl-4H-1,2,4-triazol-4-yl)-8-azabicyclo[3.2.1]octane-8-yl]-1-(5-methylthiophen-2-yl)propyl]-2-(1H-tetrazol-5-yl)acetamide] | 8.76 nM | comparable to the positive control compounds | – |
| CCCC(=O)N1CCc2c(nc(C)n2C2CC3CCC(C2)N3CC[C@H](NC(C)=O)c2nccs2)C1 (stereo partly drawn) [Compound 123, N-{(1S)-3-[(3-endo)-3-(5-n-butyryl-2-methyl-4,5,6,7-tetrahydro-1H-imidazo[4,5-c]pyridin-1-yl)-8-azabicyclo[3.2.1]octane-8-yl]-1-(thiazol-2-yl)-propyl}acetamide] | 12.1 nM | better than the positive control compounds | – |
| Cc1nnc(C(C)C)n1C1CC2CCC(C1)N2CC[C@H](NC(=O)C1CCN(S(C)(=O)=O)CC1)c1ccc(C#N)s1 (stereo partly drawn) [Compound 149, N-[(1S)-3-[exo-3-(3-isopropyl-5-methyl-4H-1,2,4-triazol-4-yl)-8-azabicyclo[3.2.1]octane-8-yl]-1-(5-cyanothiophen-2-yl)propyl]-1-methylsulfonylpiperidine-4-carboxamide] | – | comparable to the positive control compounds | 7.89 nM |
| CC(=O)N[C@@H](CCN1C2CCC1CC(n1c(C)nc3c1CCN(C(=O)C(C)C)C3)C2)c1cc(C)cs1 (stereo partly drawn) [Compound 145, N-{(1S)-3-[(3-endo)-3-(5-isobutyryl-2-methyl-4,5,6,7-tetrahydro-1H-imidazo[4,5-c]pyridin-1-yl)-8-azabicyclo[3.2.1]octane-8-yl]-1-(4-methylthiophen-2-yl)-propyl}acetamide] | 13.3 nM | – | – |
| CC(=O)N[C@@H](CCN1C2CCC1CC(n1c(C)nc3c1CCN(C(=O)C(C)C)C3)C2)c1cccc(F)c1 (stereo partly shown) [PF-232798, reference compound] | 8.29 nM | – | – |
| Cc1nnc(C(C)C)n1C1CC2CCC(C1)N2CC[C@H](NC(=O)Cc1nnn[nH]1)c1cccs1 (stereo partly drawn) [Compound 158, N-[(1S)-3-[exo-3-(3-isopropyl-5-methyl-4H-1,2,4-triazol-4-yl)-8-azabicyclo[3.2.1]octane-8-yl]-1-(thiophen-2-yl)propyl]-2-(1H-tetrazol-5-yl)acetamide] | 14.9 nM | – | – |
| COc1ccc([C@H](CCN2C3CCC2CC(n2c(C)nnc2C(C)C)C3)NC(=O)CC#N)s1 (stereo partly drawn) [Compound 166, N-[(1S)-3-[exo-3-(3-isopropyl-5-methyl-4H-1,2,4-triazol-4-yl)-8-azabicyclo[3.2.1]octane-8-yl]-1-(5-methoxythiophen-2-yl)propyl]-2-cyanoacetamide] | – | better than the positive control compounds | 6.54 nM |
| Cc1nnc(C(C)C)n1C1CC2CCC(C1)N2CC[C@H](NC(=O)Cn1ncnn1)c1ccc(F)s1 (stereo partly drawn) [Compound 157, N-[(1S)-3-[exo-3-(3-isopropyl-5-methyl-4H-1,2,4-triazol-4-yl)-8-azabicyclo[3.2.1]octane-8-yl]-1-(5-fluorothiophen-2-yl)propyl]-2-(2H-tetrazol-2-yl)acetamide] | 1.23 nM | better than the positive control compounds | – |
| Cc1nnc(C(C)C)n1C1CC2CCC(C1)N2CC[C@H](NC(=O)C1CCCC1)c1nccs1 (stereo partly drawn) [Compound 117, N-[(1S)-3-[exo-3-(3-isopropyl-5-methyl-4H-1,2,4-triazol-4-yl)-8-azabicyclo[3.2.1]octane-8-yl]-1-(thiazol-2-yl)propyl]cyclopentane-1-carboxamide] | 16.1 nM | – | – |
| Cc1nnc(C(C)C)n1C1CC2CCC(C1)N2CC[C@H](NC(=O)C1CCN(S(C)(=O)=O)CC1)c1ccc(F)s1 (stereo partly drawn) [Compound 151, N-[(1S)-3-[exo-3-(3-isopropyl-5-methyl-4H-1,2,4-triazol-4-yl)-8-azabicyclo[3.2.1]octane-8-yl]-1-(5-fluorothiophen-2-yl)propyl]-1-methylsulfonylpiperidine-4-carboxamide] | 3.45 nM | better than the positive control compounds | – |
| Cc1nnc(C(C)C)n1C1CC2CCC(C1)N2CC[C@H](NC(=O)Cn1ncnn1)c1cccs1 (stereo partly drawn) [Compound 152, N-[(1S)-3-[exo-3-(3-isopropyl-5-methyl-4H-1,2,4-triazol-4-yl)-8-azabicyclo[3.2.1]octane-8-yl]-1-(thiophen-2-yl)propyl]-2-(2H-tetrazol-2-yl)acetamide] | 7.98 nM | comparable to the positive control compounds | – |
| COc1ccc([C@H](CCN2C3CCC2CC(n2c(C)nnc2C(C)C)C3)NC(=O)C2CCN(S(C)(=O)=O)CC2)s1 (stereo partly drawn) [Compound 148, N-[(1S)-3-[exo-3-(3-isopropyl-5-methyl-4H-1,2,4-triazol-4-yl)-8-azabicyclo[3.2.1]octane-8-yl]-1-(5-methoxythiophen-2-yl)propyl]-1-methylsulfonylpiperidine-4-carboxamide] | 3.42 nM | better than the positive control compounds | – |
